Assay results from US8192962B2, “Processes for detecting toxic substances” (Daikin Industries, Ltd., priority 2001, dated 2012).

How the values were obtained:
DNA repair protein genes = assay: DNA chip mRNA expression in yeast, DNA repair protein genes (Table 3); assay type: cell-based, Saccharomyces cerevisiae S288C; conditions: incubated two hours, concentrations as in the 1st table
Procedure, shortened: (§1)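 Expression change after 2 h toxicant exposure (growth-inhibiting, sub-lethal) of log-phase S. cerevisiae S288C at 25° C. Oligo-dT-purified mRNA was labeled with Cy3-dUTP or Cy5-dUTP and hybridized >12 h at 65° C. to a genome-wide chip; ratio of scanned fluorescence to control.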

[1] = system: Detoxification protein genes; assay: DNA chip mRNA expression in yeast, detoxification protein genes (Table 8); assay type: cell-based, Saccharomyces cerevisiae S288C
Procedure, shortened: as §1

CCCCC[C@H](O)CC(=O)CCc1ccc(O)c(OC)c1 [(13), gingerol]
The level of expressed mRNA in the presence of chemical substance/The level of expressed mRNA in the absence of chemical substance (DNA repair protein genes; yeast gene YDL200C): 1.1
The level of expressed mRNA in the presence of chemical substance/The level of expressed mRNA in the absence of chemical substance (DNA repair protein genes; yeast gene YEL019C): 1.0
The level of expressed mRNA in the presence of chemical substance/The level of expressed mRNA in the absence of chemical substance (DNA repair protein genes; yeast gene YGL058W): 1.0
The level of expressed mRNA in the presence of chemical substance/The level of expressed mRNA in the absence of chemical substance (DNA repair protein genes; yeast gene YIL072W): 1.4
The level of expressed mRNA in the presence of chemical substance/The level of expressed mRNA in the absence of chemical substance (DNA repair protein genes; yeast gene YLR233C): 1.0
The level of expressed mRNA in the presence of chemical substance/The level of expressed mRNA in the absence of chemical substance (DNA repair protein genes; yeast gene YLR288C): 0.7
The level of expressed mRNA in the presence of chemical substance/The level of expressed mRNA in the absence of chemical substance (DNA repair protein genes; yeast gene YMR284W): 1.0
The level of expressed mRNA in the presence of chemical substance/The level of expressed mRNA in the absence of chemical substance (DNA repair protein genes; yeast gene YNL312W): 0.7
The level of expressed mRNA in the presence of chemical substance/The level of expressed mRNA in the absence of chemical substance (DNA repair protein genes; yeast gene YPL164C): 1.0
The level of expressed mRNA in the presence of chemical substance/The level of expressed mRNA in the absence of chemical substance (DNA repair protein genes; yeast gene YPR025C): 1.1
The level of expressed mRNA in the presence of chemical substance/The level of expressed mRNA in the absence of chemical substance ([1]; yeast gene YBL064C): 4.1
The level of expressed mRNA in the presence of chemical substance/The level of expressed mRNA in the absence of chemical substance ([1]; yeast gene YBR244W): 0.4
The level of expressed mRNA in the presence of chemical substance/The level of expressed mRNA in the absence of chemical substance ([1]; yeast gene YBR293W): 3.0
The level of expressed mRNA in the presence of chemical substance/The level of expressed mRNA in the absence of chemical substance ([1]; yeast gene YDL168W): 1.3
The level of expressed mRNA in the presence of chemical substance/The level of expressed mRNA in the absence of chemical substance ([1]; yeast gene YDR256C): 1.1
The level of expressed mRNA in the presence of chemical substance/The level of expressed mRNA in the absence of chemical substance ([1]; yeast gene YDR453C): 1.4
The level of expressed mRNA in the presence of chemical substance/The level of expressed mRNA in the absence of chemical substance ([1]; yeast gene YDR538W): 0.7
The level of expressed mRNA in the presence of chemical substance/The level of expressed mRNA in the absence of chemical substance ([1]; yeast gene YEL027W): 0.7
The level of expressed mRNA in the presence of chemical substance/The level of expressed mRNA in the absence of chemical substance ([1]; yeast gene YER185W): 2.1
The level of expressed mRNA in the presence of chemical substance/The level of expressed mRNA in the absence of chemical substance ([1]; yeast gene YFL050C): 1.2
The level of expressed mRNA in the presence of chemical substance/The level of expressed mRNA in the absence of chemical substance ([1]; yeast gene YGR088W): 1.2
The level of expressed mRNA in the presence of chemical substance/The level of expressed mRNA in the absence of chemical substance ([1]; yeast gene YGR138C): 0.6
The level of expressed mRNA in the presence of chemical substance/The level of expressed mRNA in the absence of chemical substance ([1]; yeast gene YGR209C): 1.4
The level of expressed mRNA in the presence of chemical substance/The level of expressed mRNA in the absence of chemical substance ([1]; yeast gene YHR008C): 1.2
The level of expressed mRNA in the presence of chemical substance/The level of expressed mRNA in the absence of chemical substance ([1]; yeast gene YHR048W): 1.1
The level of expressed mRNA in the presence of chemical substance/The level of expressed mRNA in the absence of chemical substance ([1]; yeast gene YIR002C): 1.2
The level of expressed mRNA in the presence of chemical substance/The level of expressed mRNA in the absence of chemical substance ([1]; yeast gene YJL101C): 1.0
The level of expressed mRNA in the presence of chemical substance/The level of expressed mRNA in the absence of chemical substance ([1]; yeast gene YKL064W): 1.6
The level of expressed mRNA in the presence of chemical substance/The level of expressed mRNA in the absence of chemical substance ([1]; yeast gene YKR066C): 0.6
The level of expressed mRNA in the presence of chemical substance/The level of expressed mRNA in the absence of chemical substance ([1]; yeast gene YKR106W): 1.4
The level of expressed mRNA in the presence of chemical substance/The level of expressed mRNA in the absence of chemical substance ([1]; yeast gene YLL028W): 4.1
The level of expressed mRNA in the presence of chemical substance/The level of expressed mRNA in the absence of chemical substance ([1]; yeast gene YLL057C): 1.4
The level of expressed mRNA in the presence of chemical substance/The level of expressed mRNA in the absence of chemical substance ([1]; yeast gene YLR046C): 1.2
The level of expressed mRNA in the presence of chemical substance/The level of expressed mRNA in the absence of chemical substance ([1]; yeast gene YML028W): 1.6
The level of expressed mRNA in the presence of chemical substance/The level of expressed mRNA in the absence of chemical substance ([1]; yeast gene YMR015C): 0.4
The level of expressed mRNA in the presence of chemical substance/The level of expressed mRNA in the absence of chemical substance ([1]; yeast gene YMR038C): 1.7
The level of expressed mRNA in the presence of chemical substance/The level of expressed mRNA in the absence of chemical substance ([1]; yeast gene YNL239W): 3.6
The level of expressed mRNA in the presence of chemical substance/The level of expressed mRNA in the absence of chemical substance ([1]; yeast gene YNL241C): 4.9
The level of expressed mRNA in the presence of chemical substance/The level of expressed mRNA in the absence of chemical substance ([1]; yeast gene YNL259C): 1.1
The level of expressed mRNA in the presence of chemical substance/The level of expressed mRNA in the absence of chemical substance ([1]; yeast gene YOL158C): 1.4
The level of expressed mRNA in the presence of chemical substance/The level of expressed mRNA in the absence of chemical substance ([1]; yeast gene YOR251C): 1.0
The level of expressed mRNA in the presence of chemical substance/The level of expressed mRNA in the absence of chemical substance ([1]; yeast gene YOR273C): 2.6
The level of expressed mRNA in the presence of chemical substance/The level of expressed mRNA in the absence of chemical substance ([1]; yeast gene YPR200C): 0.6
